Key:
Assay type in all cases: in vivo, mouse
[1] = amelioration of leptin resistance (food intake and body weight after leptin) by β3 adrenergic receptor agonist in IR S-2 knockout mice; details: repeated intraperitoneal administration for 2 weeks, then leptin 20 mg/kg intraperitoneally, 12 hours after leptin, FIG. 4
Description: Moreover, as a control, for the case without intraperitoneal administration of leptin, in which 10 ml/kg of body weight of Tragacanth gum was repeatedly administered orally for 2 weeks, or in which 10 ml/kg of body weight of physiological saline solution was repeatedly intraperitoneally administered for 2 weeks instead of CL-316243, the changes in the amount of food intake, and the changes in body weight (%) were measured.

[2] = changes in body weight after continuous ventricular administration of leptin, IR S-2 knockout mice; details: continuous ventricular leptin 10 ng/hr, after one week, FIG. 2
From the text: (§1) Insulin receptor substrate-2 (IR S-2) knockout mice were produced according to Kubota N. et al., Diabetes, November 2000, 49(11), 1880-9. Then, the IR S-2 gene (shown in the upper portion of FIG. 5) was screened from the mouse genome DNA library, and a targeting vector indicated in the middle of FIG. 5 was produced. The targeting vector was introduced into the TT2 ES cell, and ES cell clone with a recombinant was selected (shown in the lower portion of FIG. 5), which was introduced into the 8-celled embryo, thereby obtaining a chimera organism. A male chimeric organism was bred with a C57BL/6J female, thereby obtaining hetero-IR S-2 knockout mice, in which a recombinant gene has been introduced into the germ line. These hetero-knockout mice were bred with each other, thereby obtaining homo-IR S-2 knockout mice.
(§2) In a case where a canula was implanted ventricuarly to a 14-week wild-type mouse, and after starting the continuous ventricular administration of leptin (10 ng/hr), followed by food intake at will, the changes in body weigh (%) were measured after one week of said leptin administration.

[3] = changes in body weight after intraperitoneal administration of leptin, IR S-2 knockout mice; details: 8-week IR S-2 knockout mice, 12 hours after administration, FIG. 1
From the text: as §1, with “A male chimeric organism was bred with a C57BL/6J female, thereby obtaining hetero-IR S-2 knockout mice, in which a recombinant gene has been introduced into the germ line. These hetero-knockout mice were bred with each other, thereby obtaining homo-IR S-2 knockout mice.” left out
For the case where 10 mg/kg of body weight of leptin was intraperitoneally administered into the 8-week wild-type mouse, followed by food intake, the changes in body weight (%) after 12 hours of administration of leptin were measured. Moreover, (i) for the case where 10 mg/kg of body weight or 50 mg/kg of body weight of leptin was intraperitoneally administered into the 8-week IR S-2 knockout mouse, followed by food intake, the changes in body weight (%) after 12 hours of administration of leptin were measured. Furthermore, as a control, for the case where physiological saline was administered instead of leptin to the 8-week wild-type and IR S-2 knockout mice, the changes in body weight (%) were measured. […] The statistical significances of the differences in body weight, etc. were determined by Student's t test (two-tailed).

[4] = changes in body weight after intraperitoneal administration of leptin, wild-type mice; details: 8-week wild-type mice; leptin 10 mg/kg of body weight intraperitoneally; 12 hours after administration; FIG. 1
Description: For the case where 10 mg/kg of body weight of leptin was intraperitoneally administered into the 8-week wild-type mouse, followed by food intake, the changes in body weight (%) after 12 hours of administration of leptin were measured. Moreover, (i) for the case where 10 mg/kg of body weight or 50 mg/kg of body weight of leptin was intraperitoneally administered into the 8-week IR S-2 knockout mouse, followed by food intake, the changes in body weight (%) after 12 hours of administration of leptin were measured. Furthermore, as a control, for the case where physiological saline was administered instead of leptin to the 8-week wild-type and IR S-2 knockout mice, the changes in body weight (%) were measured. In FIG. 1, (a) is a result for the case in which the physiological saline was administered; (b) is a result for the case in which […] of body weight of leptin was intraperitoneally administered; and (c) is a result for the case in which […] of body weight of leptin was intraperitoneally administered. In FIG. 1, as well as in other figures, the values are expressed as means±S.E. (n=5−9); **, p<0.01; ***, p<0.001; and “N.S.” not significant. The statistical significances of the differences in body weight, etc. were determined by Student's t test (two-tailed).

[5] = changes in body weight after continuous ventricular administration of leptin, wild-type mice; details: 14-week wild-type mice; continuous ventricular leptin 10 ng/hr; after one week; FIG. 2
Description: as §2

Compound: CC(Cc1ccc2c(c1)OC(C(=O)[O-])(C(=O)[O-])O2)NCC(O)c1cccc(Cl)c1.[Na+].[Na+] (stereo not drawn) [CL-316243]
- leptin resistance (changes in food intake (%) and body weight (%) after leptin) [1]: leptin resistance in IR S-2 knockout mice is ameliorated

Compound: leptin: hormone secreted from adipose tissues, regulates appetite and energy metabolism
- changes in body weight (%) [2]: significant reduction in weight was not observed
- changes in body weight (%) ([3]; leptin 10 mg/kg of body weight intraperitoneally): significant reduction in weight was not observed
- changes in body weight (%) ([3]; leptin 50 mg/kg of body weight intraperitoneally): significant reduction in weight was not observed
- changes in body weight (%) [4]: significant reduction in weight was observed
- changes in body weight (%) [5]: significant reduction in weight was observed

— US20040242485A1, “Compositions and methods for the amelioration of leptin resistance” (priority 2003, published 2004)
